Three compounds from ChEMBL document CHEMBL1136182, “Cage amines as the stopper inhibitors of cholinesterases” (Bioorg Med Chem Lett, 2003) can be followed below.

Experiment [1] has as its target Acetylcholinesterase (Electrophorus electricus) (UniProt O42275). Briefly: Selectivity ratio of inhibition of acetylcholinesterase-AChE to that of inhibition of butyrylcholinesterase-BChE.
For a further experiment, the target named is Butyrylcholinesterase (Equus caballus, UniProt Q9N1N9). Briefly: Inhibitory activity against Butyrylcholinesterase.
Chain of Butyrylcholinesterase (Q9N1N9 whole entry): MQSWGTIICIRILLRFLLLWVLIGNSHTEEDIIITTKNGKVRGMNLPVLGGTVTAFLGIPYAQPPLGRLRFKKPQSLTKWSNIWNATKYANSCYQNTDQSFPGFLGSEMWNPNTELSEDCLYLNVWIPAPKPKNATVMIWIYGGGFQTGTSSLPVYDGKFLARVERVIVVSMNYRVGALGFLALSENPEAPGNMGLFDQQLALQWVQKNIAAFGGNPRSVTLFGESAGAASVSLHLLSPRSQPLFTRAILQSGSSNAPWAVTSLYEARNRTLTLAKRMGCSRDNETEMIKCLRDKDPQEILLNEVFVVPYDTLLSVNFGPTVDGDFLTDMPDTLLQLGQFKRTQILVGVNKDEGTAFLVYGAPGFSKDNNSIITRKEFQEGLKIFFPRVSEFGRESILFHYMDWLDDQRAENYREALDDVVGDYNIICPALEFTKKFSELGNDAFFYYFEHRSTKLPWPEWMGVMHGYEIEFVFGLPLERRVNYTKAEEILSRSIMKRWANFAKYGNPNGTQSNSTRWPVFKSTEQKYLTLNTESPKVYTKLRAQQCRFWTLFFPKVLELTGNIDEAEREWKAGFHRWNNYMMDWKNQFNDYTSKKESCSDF
The target in another experiment is Acetylcholinesterase (Electrophorus electricus, UniProt O42275). As to the kind of experiment: Inhibitory activity against acetylcholinesterase.
Chain of Acetylcholinesterase (O42275 whole entry): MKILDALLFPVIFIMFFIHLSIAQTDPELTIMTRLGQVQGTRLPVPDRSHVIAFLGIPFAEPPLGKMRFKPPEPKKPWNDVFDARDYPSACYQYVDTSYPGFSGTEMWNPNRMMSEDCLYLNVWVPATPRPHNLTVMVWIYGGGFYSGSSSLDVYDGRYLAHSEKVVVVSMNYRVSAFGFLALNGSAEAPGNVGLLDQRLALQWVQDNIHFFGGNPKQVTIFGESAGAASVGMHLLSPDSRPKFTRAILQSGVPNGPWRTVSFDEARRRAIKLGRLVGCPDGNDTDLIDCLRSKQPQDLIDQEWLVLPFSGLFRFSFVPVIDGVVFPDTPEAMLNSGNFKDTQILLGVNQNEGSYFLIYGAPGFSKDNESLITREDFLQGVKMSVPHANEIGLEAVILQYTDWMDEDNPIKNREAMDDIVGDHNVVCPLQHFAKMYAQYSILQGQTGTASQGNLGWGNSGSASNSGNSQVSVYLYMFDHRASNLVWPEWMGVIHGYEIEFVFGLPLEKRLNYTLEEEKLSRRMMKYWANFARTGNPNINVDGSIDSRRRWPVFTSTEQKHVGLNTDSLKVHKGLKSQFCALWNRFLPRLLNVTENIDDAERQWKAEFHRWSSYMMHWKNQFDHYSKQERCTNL

Chain of Acetylcholinesterase (Electrophorus electricus) (O42275 24-633 limits assumed): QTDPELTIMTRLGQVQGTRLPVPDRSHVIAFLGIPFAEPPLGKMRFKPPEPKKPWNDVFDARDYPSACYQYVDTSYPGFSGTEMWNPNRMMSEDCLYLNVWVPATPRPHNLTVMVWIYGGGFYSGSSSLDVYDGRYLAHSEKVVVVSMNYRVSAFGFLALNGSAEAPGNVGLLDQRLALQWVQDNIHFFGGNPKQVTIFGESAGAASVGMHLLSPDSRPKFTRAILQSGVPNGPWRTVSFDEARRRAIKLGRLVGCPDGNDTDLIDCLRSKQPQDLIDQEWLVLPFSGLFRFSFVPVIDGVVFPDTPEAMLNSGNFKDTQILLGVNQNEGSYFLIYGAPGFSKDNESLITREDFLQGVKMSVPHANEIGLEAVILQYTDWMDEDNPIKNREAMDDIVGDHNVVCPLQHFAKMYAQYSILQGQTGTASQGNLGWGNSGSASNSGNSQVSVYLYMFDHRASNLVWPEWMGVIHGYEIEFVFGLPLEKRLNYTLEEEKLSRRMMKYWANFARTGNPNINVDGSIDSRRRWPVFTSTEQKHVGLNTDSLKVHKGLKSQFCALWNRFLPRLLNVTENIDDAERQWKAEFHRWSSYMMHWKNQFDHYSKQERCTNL

The Ki is the equilibrium dissociation constant of an inhibitor or competing ligand from its target. A lower Ki goes with higher affinity. Turning to `Clc1ccccc1CNC1C2N(Cc3ccccc3Cl)C3C(N1Cc1ccccc1Cl)N(Cc1ccccc1Cl)C1(CC1N2Cc1ccccc1Cl)N3Cc1ccccc1Cl` (centres undefined), in experiment [1], the Ratio was found to be 3.9. Moreover, the results for the Ki at Butyrylcholinesterase and on Acetylcholinesterase were 10 nM and 39 nM, respectively.

Take `COc1cc(CNC2C3N(Cc4cc(OC)cc(OC)c4)C4C(N2Cc2cc(OC)cc(OC)c2)N(Cc2cc(OC)cc(OC)c2)C2(CC2N3Cc2cc(OC)cc(OC)c2)N4Cc2cc(OC)cc(OC)c2)cc(OC)c1` (centres undefined): the Ratio in experiment [1] worked out at 2.2. For the same compound, the Ki on Butyrylcholinesterase is 60 nM; at Acetylcholinesterase, 130 nM.

Regarding `c1cc2c(cc1CNC1C3N(Cc4ccc5c(c4)OCO5)C4C(N1Cc1ccc5c(c1)OCO5)N(Cc1ccc5c(c1)OCO5)C1(CC1N3Cc1ccc3c(c1)OCO3)N4Cc1ccc3c(c1)OCO3)OCO2` (centres undefined), in experiment [1], the Ratio was determined as 1. Moreover, the figures for the inhibition constant Ki on Butyrylcholinesterase and at Acetylcholinesterase were 310 nM and 320 nM, respectively.
